The values that follow come from patent US20210246120A1, “METHOD OF PREPARATION AND USE OF PHOSPHOINOSITIDE 3-KINASE INHIBITORS IN TREATING CANCER” (BIOMEDICAL RESEARCH FOUNDATION OF THE ACADEMY OF ATHENS …, priority 2018, published 2021).

Like-named read-outs stand apart in the source and are kept apart here. Bounds are passed on as bounds.

For assay [1], the target named is T1, mutant PI3Kα H1047R protein (Homo sapiens, UniProt P42336, H1047R).
T1 construct: purchased Millipore
The assay is described as follows: In vitro cell-free PI3Kα activity assay using PIP2 containing liposomes (H1047R mutant). It counts as biochemical. Conditions: for Inhibition selectivity for mutant PI3Kα H1047R compared to wild-type PI3Kα: ratio of IC50 WT / H1047R; for IC50: logit-log plots, PIP2 liposomes. How it is done:
PI3Kα activity assays on the identified lead compound and its analogs were performed using PIP2 containing liposomes (Gkeka et al., PLoS Comput Biol 10:e1003895 (2014)). Complexes of PIK3CA (WT or […])/PIK3R1 were obtained from Millipore. The assay was based on a protocol provided by Millipore, with modifications (Papafotika et al., in preparation) which will be further described below. In this assay, PIP3 molecules produced by PI3Kα compete with biotinylated PIP3 for binding with a recombinant GST-GRP1-PH domain (amino acids 263-380), which has been produced in bacteria, bound to glutathione coated 96-well plates. Quantitation of the competed amount of biotin-PIP3 is estimated by the peroxidase activity of streptavidin-HRP that binds to the plate and provides a measure for the activity of the protein. The compounds were preincubated with all the components of the assay mixture, except PIP2, for 10 min, at 25° C. PIP2 is added in the end of the preincubation period, thereby initiating the kinase reaction. IC50 values were calculated from dose-response curves using logit-log plots. All assays were carried out in at least three independent experiments and each concentration in triplicate. PIK-108 and wortmannin were used as controls (Gkeka et al., J Phys Chem B 119:1002-1016 (2015)).
To evaluate the in vitro activity of the compound having the formula (II) (PI3K-010), PI3Kα activity assays were performed using PIP2 containing liposomes (Gkeka et al PLOS Comp Biol 2014). In this assay, PIP3 molecules produced by PI3Kα compete with biotinylated PIP3 for binding to recombinant GST-GRP1-PH domain (amino acids 263-380), which has been produced in bacteria, bound to glutathione coated 96-well plates. Quantitation of the competed amount of biotin-PIP3 is estimated by the peroxidase activity of streptavidin-HRP that binds to the plate and provides a measure for the activity of the protein. The compounds were preincubated with all the components of the assay mixture, except PIP2, for 10 min, at 25° C. […]
To evaluate the in vitro activity of the compound having the formula (III) (PI3K-010), PI3Kα activity assays were performed using PIP2 containing liposomes (Gkeka et al PLOS Comp Biol 2014). […] Quantitation of the competed amount of biotin-PIP3 is estimated by the peroxidase activity of streptavidin-HRP that binds to the plate and provides a measure for the activity of the protein. […]
To evaluate the in vitro activity of the compound having the formula (IV) (PI3K-024), PI3Kα activity assays were performed using PIP2 containing liposomes (Gkeka et al PLOS Comp Biol 2014). […] Quantitation of the competed amount of biotin-PIP3 is estimated by the peroxidase activity of streptavidin-HRP that binds to the plate and provides a measure for the activity of the protein. […]

Assay [2] has as its system breast cancer in WAPCre/exon20 Pik3ca*/MMTV-Myc mouse. Description: Micro PET/CT imaging and Ki67 immunohistochemistry of breast tumors in WAPCre/exon20 Pik3ca*/MMTV-Myc mouse. It counts as in vivo. An excerpt:
In order to test the in vivo activity of potential anticancer drugs, establishing a corresponding cancer animal model is required. To generate mouse tumors at chosen anatomical sites, a variant of a genetic scheme that is based on Cre/loxP recombination is often used. Depending on the tissue-specificity of the promoter driving Cre expression, corresponding tumors develop in progeny derived from matings between Cre-producer mice and Cre-responder partners carrying a dormant oncogenic transgene, which becomes functional after excision of an upstream-positioned floxed DNA segment that blocks its expression [see Politi et al. Oncogene 23:1558-1565 (2004); Klinakis et al. Proc Natl Acad Sci USA 106:2359-2364 (2009), Stratikopoulos et al. Cancer Cell 27:837-851 (2015)). To develop mouse strains carrying Pik3ca gain of function mutations (hereafter referred to as Pik3ca*), a knock-in gene targeting strategy was followed (Stratikopoulos et al. Cancer Cell 27:837-851 (2015)). Thus, either of the two hotspot mutations of the Pik3ca locus (in exon 20 or in exon 9) was targeted so that the mutated Pik3ca would be expressed from the endogenous locus and not from a transgene, thus, mimicking the expression found in human tumors. Activation of the exon 20 Pik3ca oncogenic mutation was achieved after mating the animals with WAPCre producers (WAP is a milk protein, the promoter of which is used for driving Cre expression, specifically in the mammary gland). Mammary tumors appeared in such animals after a very long latency of 490 days (median). […] These mice were used to test the efficacy of compounds discussed herein.
FIG. 6. Example of micro PET/CT imaging of WAPCre/exon20 Pik3ca*/MMTV-Myc mouse (compared with a negative wild-type control) at the beginning and end of treatment (one month) of breast cancer with the PI3K-010 compound.
PET/CT images of a WAPCre/exon20 Pik3ca*/MMTV-Myc mouse were acquired at the beginning and end of treatment ([…]) of breast cancer with the PI3K-010 compound (cf. FIG. 6). The compound was administered per os (by gavage) at 100 mg/Kg doses. […]

The target of another assay is T2, wild type PI3Kα protein (Homo sapiens, UniProt P42336).
T2 construct: purchased Millipore
T2 sequence (P42336 whole entry): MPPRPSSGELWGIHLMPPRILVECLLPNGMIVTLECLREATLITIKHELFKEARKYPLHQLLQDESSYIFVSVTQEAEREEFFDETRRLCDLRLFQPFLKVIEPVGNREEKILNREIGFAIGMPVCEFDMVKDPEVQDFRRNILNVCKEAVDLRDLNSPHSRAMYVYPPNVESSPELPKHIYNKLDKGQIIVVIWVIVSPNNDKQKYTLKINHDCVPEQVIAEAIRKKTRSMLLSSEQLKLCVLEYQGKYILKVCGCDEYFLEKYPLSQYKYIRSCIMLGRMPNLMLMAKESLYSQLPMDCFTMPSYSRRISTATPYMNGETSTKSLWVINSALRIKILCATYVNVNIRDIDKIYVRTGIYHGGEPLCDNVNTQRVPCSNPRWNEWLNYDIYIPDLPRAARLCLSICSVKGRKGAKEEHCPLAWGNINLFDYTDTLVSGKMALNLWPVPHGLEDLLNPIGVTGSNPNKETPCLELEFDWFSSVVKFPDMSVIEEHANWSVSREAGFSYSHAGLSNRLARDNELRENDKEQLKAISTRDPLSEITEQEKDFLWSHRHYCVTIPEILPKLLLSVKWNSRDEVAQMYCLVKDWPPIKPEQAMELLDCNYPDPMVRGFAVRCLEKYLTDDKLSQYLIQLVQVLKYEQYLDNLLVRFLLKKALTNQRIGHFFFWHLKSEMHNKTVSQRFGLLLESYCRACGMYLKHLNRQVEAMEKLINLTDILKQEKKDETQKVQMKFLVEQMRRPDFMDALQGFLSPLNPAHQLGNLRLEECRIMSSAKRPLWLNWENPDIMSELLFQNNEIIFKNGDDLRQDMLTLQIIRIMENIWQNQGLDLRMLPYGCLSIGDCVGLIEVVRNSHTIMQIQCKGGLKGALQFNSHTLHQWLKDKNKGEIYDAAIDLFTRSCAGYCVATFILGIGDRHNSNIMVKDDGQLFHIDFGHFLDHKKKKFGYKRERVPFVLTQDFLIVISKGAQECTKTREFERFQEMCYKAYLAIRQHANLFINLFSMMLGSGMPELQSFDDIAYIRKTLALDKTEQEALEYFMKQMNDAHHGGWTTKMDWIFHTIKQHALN
T2 sequence (P27986 whole entry partner): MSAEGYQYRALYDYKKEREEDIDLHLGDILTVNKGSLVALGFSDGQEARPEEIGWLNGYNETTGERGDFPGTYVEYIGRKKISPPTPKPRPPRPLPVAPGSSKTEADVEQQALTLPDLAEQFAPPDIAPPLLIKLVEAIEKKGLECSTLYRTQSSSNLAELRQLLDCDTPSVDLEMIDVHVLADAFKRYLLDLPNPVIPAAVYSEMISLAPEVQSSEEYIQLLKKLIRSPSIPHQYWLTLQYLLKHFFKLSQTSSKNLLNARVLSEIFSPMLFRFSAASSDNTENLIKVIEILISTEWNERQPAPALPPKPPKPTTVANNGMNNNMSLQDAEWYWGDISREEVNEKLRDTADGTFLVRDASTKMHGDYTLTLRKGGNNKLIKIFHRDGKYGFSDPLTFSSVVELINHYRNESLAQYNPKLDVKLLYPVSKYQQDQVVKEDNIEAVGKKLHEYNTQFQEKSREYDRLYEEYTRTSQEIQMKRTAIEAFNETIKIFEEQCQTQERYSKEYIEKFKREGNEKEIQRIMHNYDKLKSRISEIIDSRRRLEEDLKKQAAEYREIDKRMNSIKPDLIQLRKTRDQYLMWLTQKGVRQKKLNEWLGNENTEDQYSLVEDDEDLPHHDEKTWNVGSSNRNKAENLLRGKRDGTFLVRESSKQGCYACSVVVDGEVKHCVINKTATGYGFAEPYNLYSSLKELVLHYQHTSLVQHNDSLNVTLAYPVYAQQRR
The assay is described as follows: In vitro cell-free PI3Kα activity assay using PIP2 containing liposomes (wild type). It counts as biochemical.

T1 sequence (P42336 whole entry H1047R): as the sequence (P42336 whole entry) above, with H1047R counted along it
T1 sequence (P27986 whole entry partner): as the sequence (P27986 whole entry partner) above

For the compound `c1cc(CSc2nc3ccccc3[nH]2)nc(CSc2nc3ccccc3[nH]2)c1` [PI3K-010, 2,6-bis(((1H-benzo[d]imidazol-2-yl)thio)methyl)pyridine], the “Inhibition selectivity for mutant PI3Kα H1047R compared to wild-type PI3Kα” value in assay [1] was 11 fold. Further, in assay [2] (100 mg/Kg per os by gavage, surgically removed breast tumors, controls 69.9+5.1%), the “Proliferation index (Ki67 immunohistochemistry) after treatment” value is recorded as 15.0+3.3%. Also, the “Uptake of 18F-FDG by remnants of breast cancer (PET/CT)” value in assay [2] (100 mg/Kg per os, beginning vs end of treatment (two weeks)) was “diminished uptake”. In assay [2] (100 mg/Kg per os, in comparison with the controls), the “Immunohistochemical analysis: tumor necrosis after treatment” value was “tumor necrosis”.
In general, IC50 refers to the concentration that gives 50% inhibition. As to `O=C(NCc1ccccc1)c1cccc(C(=O)NCc2ccccc2)n1` [PI3K-021, N^2,N^6-dibenzylpyridine-2,6-dicarboxamide], the IC50 at wild type PI3Kα protein (extrapolated, very low inhibition at the highest tested concentrations, read-out: IC50 for the WT PI3Kα, estimated by extrapolation) is over 1000 µM; in assay [1] (read-out: IC50 for the mutant H1047R PI3Kα), 13.5 µM. Further, in assay [1], the “Inhibition selectivity for mutant PI3Kα H1047R compared to wild-type PI3Kα” value is on record as over 100 fold.
On to `O=C(Nc1cccc(O)c1)c1cccc(C(=O)Nc2cccc(O)c2)n1` [PI3K-024, N^2,N^6-bis(3-hydroxyphenyl)pyridine-2,6-dicarboxamide], for which the concentration for half-maximal inhibition (IC50) came to 0.006 µM on wild type PI3Kα protein (logit-log plots, 100 μM ATP, PIP2 liposomes, read-out: IC50 against WT PI3Kα) and 0.064 µM in assay [1] (100 μM ATP, read-out: IC50 against mutant H1047R PI3Kα).
